# Test results published in ChEMBL document CHEMBL3045984, “Resistance to HPPD-inhibiting herbicides in a population of waterhemp (Amaranthus tuberculatus) from Illinois, United States” (2011).
# Tests used:
# Format in all cases: functional
# Amaranthus tuberculatus [1] = assay: Herbicidal activity against Amaranthus tuberculatus biotype ACR assessed as visual injury at 105 g/ha applied as spray after 21 days under green house conditions relative to untreated control
# Amaranthus tuberculatus [2] = assay: Herbicidal activity against Amaranthus tuberculatus biotype MCR 16 assessed as visual injury at 105 g/ha applied as spray after 14 days under green house conditions relative to untreated control
# Amaranthus tuberculatus [3] = assay: Herbicidal activity against Amaranthus tuberculatus biotype MCR 15 assessed as visual injury at 105 g/ha applied as spray after 14 days under green house conditions relative to untreated control
# Amaranthus tuberculatus [4] = assay: Herbicidal activity against Amaranthus tuberculatus biotype MCR 12 assessed as visual injury at 105 g/ha applied as spray after 14 days under green house conditions relative to untreated control
# Amaranthus tuberculatus [5] = assay: Herbicidal activity against Amaranthus tuberculatus biotype MCR 12 assessed as visual injury at 105 g/ha applied as spray after 7 days under green house conditions relative to untreated control
# Amaranthus tuberculatus [6] = assay: Herbicidal activity against Amaranthus tuberculatus biotype WCS assessed as visual injury at 105 g/ha applied as spray after 21 days under green house conditions relative to untreated control
# Amaranthus tuberculatus [7] = assay: Herbicidal activity against Amaranthus tuberculatus biotype ACR assessed as visual injury at 105 g/ha applied as spray after 14 days under green house conditions relative to untreated control
# Amaranthus tuberculatus [8] = assay: Herbicidal activity against Amaranthus tuberculatus biotype WCS assessed as visual injury at 105 g/ha applied as spray after 14 days under green house conditions relative to untreated control
# Amaranthus tuberculatus [9] = assay: Herbicidal activity against Amaranthus tuberculatus biotype MCR 16 assessed as visual injury at 105 g/ha applied as spray after 7 days under green house conditions relative to untreated control
# Amaranthus tuberculatus [10] = assay: Herbicidal activity against Amaranthus tuberculatus biotype MCR 15 assessed as visual injury at 105 g/ha applied as spray after 7 days under green house conditions relative to untreated control
# Amaranthus tuberculatus [11] = assay: Herbicidal activity against Amaranthus tuberculatus biotype MCR 16 assessed as visual injury at 105 g/ha applied as spray after 21 days under green house conditions relative to untreated control
# Amaranthus tuberculatus [12] = assay: Herbicidal activity against Amaranthus tuberculatus biotype MCR 15 assessed as visual injury at 105 g/ha applied as spray after 21 days under green house conditions relative to untreated control
# Amaranthus tuberculatus [13] = assay: Herbicidal activity against Amaranthus tuberculatus biotype MCR 12 assessed as visual injury at 105 g/ha applied as spray after 21 days under green house conditions relative to untreated control
# Amaranthus tuberculatus [14] = assay: Herbicidal activity against Amaranthus tuberculatus biotype ACR assessed as visual injury at 105 g/ha applied as spray after 7 days under green house conditions relative to untreated control
# Amaranthus tuberculatus [15] = assay: Herbicidal activity against Amaranthus tuberculatus biotype WCS assessed as visual injury at 105 g/ha after 7 days applied as spray under green house conditions relative to untreated control
# Amaranthus tuberculatus [16] = assay: Herbicidal activity against Amaranthus tuberculatus biotype MCR assessed as mortality at 315 g/ha applied as spray after 21 days under green house conditions relative to untreated control; conditions: 504 h
# Amaranthus tuberculatus [17] = assay: Herbicidal activity against Amaranthus tuberculatus biotype MCR assessed as mortality at 105 g/ha applied as spray after 21 days under green house conditions relative to untreated control; conditions: 504 h
# Amaranthus tuberculatus [18] = assay: Herbicidal activity against Amaranthus tuberculatus biotype ACR assessed as visual injury at 315 g/ha applied as spray after 21 days under green house conditions relative to untreated control
# Amaranthus tuberculatus [19] = assay: Herbicidal activity against Amaranthus tuberculatus biotype WCS assessed as visual injury at 315 g/ha applied as spray after 21 days under green house conditions relative to untreated control
# Amaranthus tuberculatus [20] = assay: Herbicidal activity against Amaranthus tuberculatus biotype MCR assessed as decrease in shoot dry weight at 105 g/ha applied as spray during post-emergence after 21 days under green house conditions relative to untreated control; set-up: scale not given: the % may be the effect or the level left
# Amaranthus tuberculatus [21] = assay: Herbicidal activity against Amaranthus tuberculatus biotype ACR assessed as decrease in shoot dry weight at 105 g/ha applied as spray during post-emergence after 21 days under green house conditions relative to untreated control; set-up: scale not given: the % may be the effect or the level left
# Amaranthus tuberculatus [22] = assay: Herbicidal activity against Amaranthus tuberculatus biotype WCS assessed as decrease in shoot dry weight at 105 g/ha applied as spray during post-emergence after 21 days under green house conditions relative to untreated control; set-up: scale not given: the % may be the effect or the level left
# Amaranthus tuberculatus [23] = assay: Herbicidal activity against Amaranthus tuberculatus biotype WCS assessed as decrease in shoot dry weight applied as spray after 21 days under green house conditions
# Amaranthus tuberculatus [24] = assay: Herbicidal activity against Amaranthus tuberculatus biotype ACR assessed as decrease in shoot dry weight applied as spray after 21 days under green house conditions
# Amaranthus tuberculatus [25] = assay: Herbicidal activity against Amaranthus tuberculatus biotype MCR assessed as decrease in shoot dry weight applied as spray after 21 days under green house conditions
compound,measurement,setting,value
CS(=O)(=O)c1ccc(C(=O)C2C(=O)CCCC2=O)c([N+](=O)[O-])c1 [MESOTRIONE],Activity,Amaranthus tuberculatus [1],88%
same,Activity,Amaranthus tuberculatus [2],45%
same,Activity,Amaranthus tuberculatus [3],36%
same,Activity,Amaranthus tuberculatus [4],24%
same,Activity,Amaranthus tuberculatus [5],40%
same,Activity,Amaranthus tuberculatus [6],100%
same,Activity,Amaranthus tuberculatus [7],90%
same,Activity,Amaranthus tuberculatus [8],96%
same,Activity,Amaranthus tuberculatus [9],48%
same,Activity,Amaranthus tuberculatus [10],37%
same,Activity,Amaranthus tuberculatus [11],27%
same,Activity,Amaranthus tuberculatus [12],26%
same,Activity,Amaranthus tuberculatus [13],13%
same,Activity,Amaranthus tuberculatus [14],63%
same,Activity,Amaranthus tuberculatus [15],85%
same,mortality at 315 g/ha,Amaranthus tuberculatus [16],33%
same,mortality at 105 g/ha,Amaranthus tuberculatus [17],0%
same,Activity,Amaranthus tuberculatus [18],100%
same,Activity,Amaranthus tuberculatus [19],100%
same,Activity,Amaranthus tuberculatus [20],60%
same,Activity,Amaranthus tuberculatus [21],>90%
same,Activity,Amaranthus tuberculatus [22],>90%
same,GR50,Amaranthus tuberculatus [23],1.4 g/ha
same,GR50,Amaranthus tuberculatus [24],4.9 g/ha
same,GR50,Amaranthus tuberculatus [25],48.5 g/ha
